Values quoted from earlier work in patent US12396980B2, “Melatonin for preventing and treating radiation cystitis” (RepoCeuticals A/S, priority 2015, dated 2025).

Legend:
[1] = tested on: radiation cystitis; settings: human patients
[2] = tested on: lymphocytes; settings: prior oral dosage; human beings
[3] = tested on: rat urinary bladder; settings: intraperitoneal

Compound: C[S+](C)[O-] [DMSO, Dimethyl sulfoxide]
- therapeutic effect on radiation cystitis [1]: some therapeutic effect

Compound: COC1=C(OC)C(=O)C(C/C=C(\C)CC/C=C(\C)CC/C=C(\C)CC/C=C(\C)CC/C=C(\C)CC/C=C(\C)CC/C=C(\C)CC/C=C(\C)CC/C=C(\C)CCC=C(C)C)=C(C)C1=O [coenzyme Q10]
- water solubility: almost water-insoluble

Compound: COc1ccc2[nH]cc(CCNC(C)=O)c2c1 [melatonin, /V-acetyl-5-methoxytryptamine]
- protective effect on the damage caused by subsequent ex vivo radiation exposure of lymphocytes [2]: protective effect
- protective effect against radiation-induced oxidative changes to the rat urinary bladder [3]: protective effect
